What all share (format): in vivo
For assay [1], the system named is Euschistus heros (Neotropical Brown Stink Bug). Briefly: Example B2: Euschistus heros (Neotropical Brown Stink Bug), sprayed soybean leaves. As to conditions: 120 h, application rate of 200 ppm, N2 nymphs on sprayed soybean leaves, 5 days after infestation, read-out: control in at least one of the two categories (mortality or growth inhibition). Here is the method: Example B2: Euschistus heros (Neotropical Brown Stink Bug)
Soybean leaves on agar in 24-well microtiter plates were sprayed with aqueous test solutions prepared from 10′000 ppm DMSO stock solutions. After drying the leaves were infested with N2 nymphs. The samples were assessed for mortality and growth inhibition in comparison to untreated samples 5 days after infestation.
The following compounds gave an effect of at least 80% control in at least one of the two categories (mortality or growth inhibition) at an application rate of 200 ppm: P2.1., P8.1

The subject of assay [2] is Diabrotica balteata (Corn Root Worm). Description: Example B1: Diabrotica balteata (Corn Root Worm), sprayed maize sprouts. As to conditions: 96 h, application rate of 200 ppm, L2 larvae on sprayed maize sprouts, 4 days after infestation, read-out: control in at least one of the two categories (mortality or growth inhibition). The procedure: Example B1: Diabrotica balteata (Corn Root Worm)
Maize sprouts placed onto an agar layer in 24-well microtiter plates were treated with aqueous test solutions prepared from 10′000 ppm DMSO stock solutions by spraying. After drying, the plates were infested with L2 larvae (6 to 10 per well). The samples were assessed for mortality and growth inhibition in comparison to untreated samples 4 days after infestation.
The following compounds gave an effect of at least 80% control in at least one of the two categories (mortality or growth inhibition) at an application rate of 200 ppm: P1.2, P2.1, P2.2, P2.5, P2-17, P3.4, P7.1, P8.1

Assay [3] deals with Tetranychus urticae (Two-Spotted Spider Mite). Briefly: Example B5: Tetranychus urticae (Two-Spotted Spider Mite), feeding/contact activity. The following applies: foliar, 192 h, application rate of 200 ppm, mixed population (mobile stages) on sprayed bean leaf discs, 8 days after infestation. The procedure:
Example B5: Tetranychus urticae (Two-Spotted Spider Mite): Feeding/Contact Activity
Bean leaf discs on agar in 24-well microtiter plates were sprayed with aqueous test solutions prepared from 10′000 ppm DMSO stock solutions. After drying the leaf discs were infested with a mite population of mixed ages. The samples were assessed for mortality on mixed population (mobile stages) 8 days after infestation.

In assay [4] the test system is Plutella xylostella (Diamond Back Moth). Briefly: Example B3: Plutella xylostella (Diamond Back Moth), artificial diet. The following applies: 192 h, application rate of 200 ppm, eggs, treated artificial diet, 8 days after infestation, read-out: control in at least one of the two categories (mortality or growth inhibition). The procedure: Example B3: Plutella xylostella (Diamond Back Moth)
24-well microtiter plates with artificial diet were treated with aqueous test solutions prepared from 10′000 ppm DMSO stock solutions by pipetting. After drying, Plutella eggs were pipetted through a plastic stencil onto a gel blotting paper and the plate was closed with it. The samples were assessed for mortality and growth inhibition in comparison to untreated samples 8 days after infestation. The following compounds gave an effect of at least 80% control in at least one of the two categories (mortality or growth inhibition) at an application rate of 200 ppm: P1.2, P1.15, P1.51, P2.1, P2.2, P2.5, P2.10, P2.15, P2.16, P5.1, P5.2, P5.3, P7.1, P8.1

The structures appear in SMILES notation. Some results are limits rather than exact numbers.

With `NC(=S)c1cc(C(=O)N2CCN(c3ncc(Cl)cc3Cl)CC2)c(C(F)(F)F)cc1-c1ccc(C(F)(F)F)cc1` [Compound P8.1, 5-[4-(3,5-Dichloro-2-pyridyl)piperazine-1-carbonyl]-4-(trifluoromethyl)-2-[4-(trifluoromethyl)phenyl]benzenecarbothioamide], the percent control (mortality or growth inhibition) at 200 ppm in assay [1], in assay [2] and in assay [4] was not below 80% in each case. The same compound showed a mortality at 200 ppm in assay [3] not below 80%.

As for `CCOc1cc(-c2ccc(C(F)(F)F)cc2)c(C#N)cc1C(=O)N1CCC(CSCC)CC1` [Compound P1.46, 4-Ethoxy-5-[4-(ethylsulfanylmethyl)piperidine-1-carbonyl]-2-[4-(trifluoromethyl)phenyl]-benzonitrile], the mortality at 200 ppm in assay [3] is not below 80%.

On to `CCC[S+]([O-])CC1CN(C(=O)c2cc(C#N)c(-c3ccc(C(F)(F)F)cc3)cc2C(F)(F)F)C1` (stereo not shown) [Compound P3.7, 5-[3-(Propylsulfinylmethyl)azetidine-1-carbonyl]-4-(trifluoromethyl)-2-[4-(trifluoromethyl)phenyl]-benzonitrile], for which the mortality at 200 ppm in assay [3] was not below 80%.

For `N#Cc1cc(C(=O)N2CCN(c3ncc(Cl)cc3Cl)CC2)c(C(F)(F)F)cc1-c1ccc(C(F)(F)F)cc1` [Compound P2.1, 5-[4-(3,5-Dichloro-2-pyridyl)piperazine-1-carbonyl]-4-(trifluoromethyl)-2-[4-(trifluoromethyl)phenyl]benzonitrile], the percent control (mortality or growth inhibition) at 200 ppm in assay [1], in assay [2] and in assay [4] was not below 80% each time. The compound further registered a mortality at 200 ppm in assay [3] not below 80%.

As to `CCCSCC1CN(C(=O)c2cc(C#N)c(-c3ccc(C(F)(F)F)cc3)cc2C(F)(F)F)C1` [Compound P3.9, 5-[3-(propylsulfanylmethyl)azetidine-1-carbonyl]-4-(trifluoromethyl)-2-[4-(trifluoromethyl)-phenyl]benzonitrile], in assay [3], the mortality at 200 ppm is not below 80%.

Consider `Cc1nc(C2CCN(C(=O)c3cc(C#N)c(-c4ccc(C(F)(F)F)cc4)cc3C(F)(F)F)CC2)no1` [Compound P1.1, 5-[4-(5-Methyl-1,2,4-oxadiazol-3-yl)piperidine-1-carbonyl]-4-(trifluoromethyl)-2-[4-(trifluoromethyl)phenyl]benzonitrile], for which, in assay [3], the mortality at 200 ppm is not below 80%.

Take `CCOc1cc(-c2ccc(C(F)(F)F)cc2)c(C#N)cc1C(=O)N1CCN(c2ncc(Cl)cc2Cl)CC1` [Compound P2.5, 5-[4-(3,5-Dichloro-2-pyridyl)piperazine-1-carbonyl]-4-ethoxy-2-[4-(trifluoromethyl)-phenyl]-benzonitrile]: the percent control (mortality or growth inhibition) at 200 ppm in assay [2] and in assay [4] was not below 80% throughout. The mortality at 200 ppm in assay [3] is not below 80%.

`Cc1nc(C2CCN(C(=O)c3cc(C#N)c(-c4ccc(C(F)(F)F)cc4)c(C#N)c3C)CC2)no1` [Compound P6.1]: the mortality at 200 ppm in assay [3] is not below 80%.

Broadly, the mortality is the percentage killed.

The values are drawn from patent publication US12604895B2, “Pesticidally active cyclic amine compounds” (SYNGENTA CROP PROTECTION AG, priority 2020, dated 2026).
